The structures appear in SMILES notation.

Sequence of human PD-L1 / Human PD-1 (Q9NZQ7 19-239): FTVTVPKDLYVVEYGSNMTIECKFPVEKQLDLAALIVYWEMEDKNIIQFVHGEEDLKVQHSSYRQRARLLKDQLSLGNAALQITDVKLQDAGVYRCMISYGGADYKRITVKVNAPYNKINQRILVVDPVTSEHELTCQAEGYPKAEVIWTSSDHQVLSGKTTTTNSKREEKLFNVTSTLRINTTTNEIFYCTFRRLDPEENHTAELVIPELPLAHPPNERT

This assay concerns the target human PD-L1 / Human PD-1 (Homo sapiens (Human), UniProt Q9NZQ7). Nature of the assay: Enzyme-Linked Immunosorbent Assay (ELISA), PD-1/PD-L1 binding. To be noted: plates coated with human PD-L1, biotinylated human PD-1 added. Here is the method:
96 Well plates were coated with 1 μg/mL of human PD-L1 (obtained from R&D) in PBS overnight at 4′° C. The wells were then blocked with 2% BSA in PBS (W/V) with 0.05% TWEEN-20 for 1 hour at 37′° C. The plates were washed 3 times with PBS/0.05% TWEEN-20 and the compounds were serial diluted (1:5) in dilution medium and added to the ELISA plates. Human PD-1 and biotin 0.3 μg/mL (ACRO Biosystems) were added and incubated for 1 hour at 37° C. then washed 3 times with PBS/0.05% TWEEN-20. A second block was performed with 2% BSA in PBS (WNV)/0.05% TWEEN-20 for 10 min at 37° C. and the plates were washed 3 times with PBS/0.05% TWEEN-20. Streptavidin-HIRP was added for 1 hour at 37° C. then the plates were washed 3 times with PBS/0.05% TWEEN-20. TMB substrate was added and reacted for 20 min at 37° C. A stop solution (2 N aqueous H2SO4) was added. The absorbance was read at 450 nm using a micro-plate spectrophotometer.
For the compound `Cc1c(OCCCN2CCC(F)CC2)cccc1-c1cccc(-c2ccc(CN)cc2F)c1C` [Compd 1.082], the IC50 was less than 1000 nM. The same measure for `Cc1c(-c2ccc(CN)cc2)cccc1-c1ccc2c(c1)OCCO2` [Compd 1.127]: 1000 to 10000 nM. Consider `Cc1c(OCCCN2CCC(F)CC2)cccc1-c1cccc(-c2ccc3c(c2)CCNC3)c1C` [Compd 1.110], for which the IC50 was less than 1000 nM. `Cc1c(OCCCN2[C@H](C)CC[C@H]2C)cccc1-c1cccc(-c2ccc(CNCC(=O)O)cc2)c1C` [Compd 1.101] showed an IC50 of less than 1000 nM. The same measure for `Cc1c(OCCCN2CCC(F)CC2)cccc1-c1cccc(-c2ccc(CN3CCCC[C@H]3C(=O)O)cc2)c1C` [Compd 1.071]: 1000 to 10000 nM; for `Cc1c(-c2ccc3c(c2)CNCC3)cccc1-c1ccc2c(c1)OCCO2` [Compd 1.128]: 1000 to 10000 nM. The same measure for `Cc1c(OCCCN2CC(O)C2)cccc1-c1cccc(-c2ccc3c(c2)CCNC3)c1C` [Compd 1.112]: less than 1000 nM; for `Cc1c(OCCCN2[C@H](C)CC[C@H]2C)cccc1-c1cccc(-c2ccc(CN(C)C)c(OC(C)C)c2)c1C` [Compd 1.074]: less than 1000 nM; for `Cc1c(OCCCN2[C@H](C)CC[C@H]2C)cccc1-c1cccc(-c2ccc3c(c2)CC(C(=O)O)NC3)c1C` (some centres unmarked) [Compd 1.068]: less than 1000 nM.

`Cc1c(OCCCN2[C@H](C)CC[C@H]2C)cccc1-c1cccc(-c2ccc(CN)cc2)c1C` [Compd 1.121] returned a 50% inhibitory concentration (IC50) of less than 1000 nM.

In turn, `COc1cc(-c2cccc(-c3cccc(-c4cc(F)c(CN)c(OC)c4)c3C)c2C)ccc1C(=O)O` [Compd 1.005] came in with an IC50 of 1000 to 10000 nM.

`COc1c(-c2ccc3c(c2)CCNC3)cccc1-c1cccc(OCCCN2CCC2(C)C)c1C` [Compd 1.088, 6-(3′-(3-(2,2-dimethylazetidin-1-yl)propoxy)-2-methoxy-2′-methyl-[1,1′-biphenyl]-3-yl)-1,2,3,4-tetrahydroisoquinoline] returned an IC50 of less than 1000 nM. The result for `Cc1c(OCCCN2[C@H](C)CC[C@H]2C)cccc1-c1cccc(-c2ccc(C(C)N)cc2)c1C` (some centres unmarked) [Compd 1.113] reads less than 1000 nM; that for `COc1cc(-c2cccc(-c3cccc(OCCCN4[C@H](C)CC[C@H]4C)c3C)c2C)cc(F)c1CNCCCC(=O)O` [Compd 1.067], less than 1000 nM. The result for `COc1cc(-c2cccc(-c3cccc(-c4cc(F)c(CN(C)CCCC(=O)O)c(OC)c4)c3C)c2C)cc(F)c1CN(C)CCCC(=O)O` [Compd 1.058] reads less than 1000 nM; that for `COc1cc(-c2cccc(-c3cccc(OC4CCCNC4)c3C)c2C)cc(F)c1CN` (centres unmarked) [Compd 1.014], 1000 to 10000 nM. The result for `COC(=O)C1=Cc2cc(-c3cccc(-c4cc(F)c(CN)c(OC)c4)c3C)ccc2OC1` [Compd 1.016, Methyl 6-(4′-(aminomethyl)-3′-fluoro-5′-methoxy-2-methyl-[1,1′-biphenyl]-3-yl)-2H-chromene-3-carboxylate] reads less than 1000 nM. Turning to `Cc1c(OCCCN2[C@H](C)CC[C@H]2C)cccc1-c1cccc(-c2cc(F)c(CNCCCC(=O)O)c(F)c2)c1C` [Compd 1.061], the IC50 was less than 1000 nM. The same measure for `Cc1c(OCCCN2CCC(F)CC2)cccc1-c1cccc(-c2ccc(CN)c(F)c2)c1C` [Compd 1.086]: less than 1000 nM; for `COc1cc(-c2cccc(-c3cccc(-c4cc(F)c(CN)c(OC)c4)c3C)c2C)ccc1CC(=O)O` [Compd 1.001]: 1000 to 10000 nM.

Turning to `COc1cc(-c2cccc(-c3cccc(-c4cc(F)c(CNCCC(=O)O)c(OC)c4)c3C)c2C)cc(F)c1CNCCC(=O)O` [Compd 1.055], the IC50 is less than 1000 nM. The same measure for `Cc1c(OCCCN2CCC2(C)C)cccc1-c1cccc(-c2ccc3c(c2)CCNC3)c1Cl` [Compd 1.089, 6-(3′-(3-(2,2-dimethylazetidin-1-yl)propoxy)-2-chloro-2′-methyl-[1,1′-biphenyl]-3-yl)-1,2,3,4-tetrahydroisoquinoline]: less than 1000 nM. `Cc1c(OCCCN2CCC2(C)C)cccc1-c1cccc(-c2ccc3c(c2)CCNC3)c1C#N` [Compd 1.102, 3′-(3-(2,2-dimethylazetidin-1-yl)propoxy)-2′-methyl-3-(1,2,3,4-tetrahydroisoquinolin-6-yl)-[1,1′-biphenyl]-2-carbonitrile]: the IC50 is less than 1000 nM.

In the case of `COc1cc(-c2cccc(-c3cccc(-c4cc(F)c(CNCCO)c(OC)c4)c3C)c2C)cc(F)c1CN` [Compd 1.035], the IC50 is less than 1000 nM.

The compound `Cc1c(OCCCN2[C@H](C)CC[C@H]2C)cccc1-c1cccc(-c2ccc3c(c2)CC(C(=O)O)NC3)c1C` (some centres unmarked) [Compd 1.064] returned an IC50 of 1000 to 10000 nM.

`COc1cc(-c2cccc(-c3cc(F)c(CN)c(OC)c3)c2C)ccc1F` [Compd 1.021] displayed an IC50 of 1000 to 10000 nM. The result for `COc1cc(-c2cccc(-c3cccc(-c4cc(F)c(CNCCCCC(=O)O)c(OC)c4)c3C)c2C)cc(F)c1CNCCCCC(=O)O` [Compd 1.054] reads less than 1000 nM; that for `Cc1c(OCCCN2[C@H](C)CC[C@H]2C)cccc1-c1cccc(-c2ccc([C@H](C)N)cc2)c1C` [Compd 1.098], less than 1000 nM; that for `COc1cc(-c2cccc(-c3cccc(-c4cc(F)c(CNCCO)c(OC)c4)c3C)c2C)cc(F)c1CNCCO` [Compd 1.051, 2,2′-(((3,3′″-difluoro-5,5′″-dimethoxy-2′,2″-dimethyl-[1,1′:3′,1″:3″,1′″-quaterphenyl]-4,4′″-diyl)bis(methylene))bis(azanediyl))bis(ethan-1-ol)], less than 1000 nM. Compound `Cc1c(OCCCN2CCC2(C)C)cccc1-c1cccc(-c2ccc3c(c2)CCNC3)c1F` [Compd 1.090, 6-(3′-(3-(2,2-dimethylazetidin-1-yl)propoxy)-2-fluoro-2′-methyl-[1,1′-biphenyl]-3-yl)-1,2,3,4-tetrahydroisoquinoline] returned a concentration for half-maximal inhibition (IC50) of less than 1000 nM. The result for `COc1cc(-c2cccc(-c3cccc(-c4cc(F)c(CNCCS(=O)(=O)O)c(OC)c4)c3C)c2C)cc(F)c1CNCCS(=O)(=O)O` [Compd 1.041, 2,2′-(((3,3′″-difluoro-5,5′″-dimethoxy-2′,2″-dimethyl-[1,1′:3′,1″:3″,1′″-quaterphenyl]-4,4′″-diyl)bis(methylene))bis(azanediyl))bis(ethane-1-sulfonic Acid)] reads less than 1000 nM; that for `Cc1c(OCCCN2CCC2(C)C)cccc1-c1cccc(-c2ccc3c(c2)CNCC3)c1C` [Compd 1.124], less than 1000 nM; that for `Cc1c(OCCCN2[C@H](C)CC[C@H]2C)cccc1-c1cccc(-c2ccc(CN(C)C)cc2)c1C` [Compd 1.122], less than 1000 nM. The result for `COc1cc(-c2cccc(-c3cccc(-c4cc(F)c(CNCC(=O)O)c(OC)c4)c3C)c2C)cc(F)c1CNCC(=O)O` [Compd 1.062] reads less than 1000 nM; that for `Cc1c(OCCCN2CCC(F)CC2)cccc1-c1cccc(-c2ccc(CN)cc2Cl)c1C` [Compd 1.096], 1000 to 10000 nM; that for `COc1cc(CN(C)C)ccc1-c1cccc(-c2cccc(OCCCN3CCC(F)CC3)c2C)c1C` [Compd 1.093], 1000 to 10000 nM. Compound `COc1cc(-c2cccc(-c3cccc(-c4cc(F)c(CN(C)C[C@@H]5CCC(=O)N5)c(OC)c4)c3C)c2C)cc(F)c1CN(C)C[C@@H]1CCC(=O)N1` [Compd 1.047] showed an IC50 of less than 1000 nM.

Turning to `COc1cc(-c2cccc(-c3cccc(OCCCN4CCC(F)CC4)c3C)c2C)cc(F)c1CN(C)C` [Compd 1.078], the IC50 was less than 1000 nM. The same measure for `Cc1c(OCCCN2[C@H](C)CC[C@H]2C)cccc1-c1cccc(-c2ccc3c(c2)CNC3)c1C` [Compd 1.120]: less than 1000 nM; for `Cc1c(OCCCN2CCC2(C)C)cccc1-c1cccc(-c2ccc3c(c2)CCNC3)c1C` [Compd 1.125]: less than 1000 nM.

As for `Cc1c(OCCCN2[C@H](C)CC[C@H]2C)cccc1-c1cccc(-c2ccc3c(c2)CCN(CC(=O)O)C3)c1C` [Compd 1.108], the IC50 was less than 1000 nM. Consider `Cc1c(OCCCN2CCC2(C)C)cccc1-c1cccc(-c2ccc3c(c2)CCNC3)c1C(F)(F)F` [Compd 1.085], for which the IC50 was in the range of 1000 to 10000 nM. Compound `COC(=O)[C@@H]1CCCCN1Cc1ccc(-c2cccc(-c3cccc(OCCCN4CCC(F)CC4)c3C)c2C)cc1` [Compd 1.072] registered an IC50 of 1000 to 10000 nM. The result for `COc1cccc(-c2cccc(-c3ccc4c(c3)CCNC4)c2C)c1` [Compd 1.116, 6-(3′-methoxy-2-methyl-[1,1′-biphenyl]-3-yl)-1,2,3,4-tetrahydroisoquinoline] reads 1000 to 10000 nM; that for `COc1cc(-c2cccc(-c3ccc4c(c3)OC(C3=NCCN3)CO4)c2C)cc(F)c1CN` (centres unmarked) [Compd 1.009], 1000 to 10000 nM. The same measure for `Cc1c(OCCCN2CCC(F)CC2)cccc1-c1cccc(-c2ccc(CN(C)C)c(Cl)c2)c1C` [Compd 1.081]: less than 1000 nM; for `COc1cc(-c2cccc(-c3cccc(-c4cc(F)c(CCN)c(OC)c4)c3C)c2C)cc(F)c1CCN` [Compd 1.045]: less than 1000 nM; for `COc1cc(-c2cccc(-c3cccc(-c4cc(F)c(CN5CCC(O)CC5)c(OC)c4)c3C)c2C)cc(F)c1CN1CCC(O)CC1` [Compd 1.043, 1,1′-((3,3′″-difluoro-5,5′″-dimethoxy-2′,2″-dimethyl-[1,1′:3′,1″:3″,1′″-quaterphenyl]-4,4′″-diyl)bis(methylene))bis(piperidin-4-ol)]: less than 1000 nM. Regarding `COc1cc(-c2cccc(-c3cccc(-n4ccnc4)c3C)c2C)cc(F)c1CN1CC(C(=O)O)C1` [Compd 1.006], the IC50 lay within 1000 to 10000 nM. Regarding `COc1cc(-c2cccc(-c3cccc(-c4ccc5c(c4)CCNC5)c3C)c2C)cc(F)c1CNCCO` [Compd 1.040, 2-(((3-fluoro-5-methoxy-2′,2″-dimethyl-3″-(1,2,3,4-tetrahydroisoquinolin-6-yl)-[1,1′:3′,1″-terphenyl]-4-yl)methyl)amino)ethan-1-ol], the IC50 is less than 1000 nM.

Broadly, the IC50 is the midpoint of a concentration-inhibition curve. High values mean weaker potency in that assay, low ones greater potency in that assay.

For the origin of these results see patent publication US11485708B2, “Compounds for treatment of PD-L1 diseases” (CHEMOCENTRYX, INC., priority 2019, dated 2022).
